{
  "source": "patent US20120101284A1",
  "about": "“METHOD FOR SCREENING INHIBITOR FOR INHIBITING INTERACTION BETWEEN BETA-AMYLOID PEPTIDE AND VEGF AND INHIBITOR SEARCHED BY THE SAME” (INNOPHARMASCREEN INC., priority 2009, published 2012)",
  "key": {"[1]": {"test_system": "SH-SY5Y cell", "assay": "Inhibition of cytotoxicity of beta-amyloid by screened material (MTT assay)", "format": "cell-based", "details": "standard of 10 μM beta-amyloid, at more than 5 μM, 24 hours", "procedure": "The SH-SY5Y cells were added to 96-well tissue culture plate to be the cell concentration of 1×10^4 per well."}, "[2]": {"target": "T1, binding between the beta-amyloid 1-42 peptide and VEGF165 (Homo sapiens, UniProt P15692)", "T1 construct": "purchased R&D System, Inc. (VEGF165); Bachem AG (beta-amyloid)", "T1 sequence (P15692 27-191 isoform P15692-4)": "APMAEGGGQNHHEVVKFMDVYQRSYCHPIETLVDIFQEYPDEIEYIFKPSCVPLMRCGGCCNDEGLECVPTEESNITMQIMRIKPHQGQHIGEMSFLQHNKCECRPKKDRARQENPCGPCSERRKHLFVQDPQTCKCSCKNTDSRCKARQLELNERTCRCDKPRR", "assay": "Protein chip screening of inhibitors of the binding between beta-amyloid and VEGF165", "details": "first screening, VEGF165 50 μg/ml, single concentration", "procedure": "ProteoChip™ (Proteogen Inc., Seoul, Korea) was used as a substrate to fix a protein. A sheet paper was adhered on the substrate to prepare Well-Chip. A beta-amyloid (Bachem AG, Bubendorf, Switzerland) was diluted with a phosphate-buffered saline (PBS) containing 30% glycerol solution to be 50 μg/ml; then added to each well; reacted at 30° C. in a humidity incubator, overnight; the beta-amyloid remained after combining was washed with a phosphate-buffered saline containing 0.05% tween-20 (0.05% PBST); dried with a nitrogen gas; and then a high-speed-high throughput screening was performed.\nA mixed solution was prepared by mixing VEGF165 (50 μg/ml) and 130 compounds (50 μM) derived from a natural material obtained in Example 1 in order to experiment the inhibition of the binding between the beta-amyloid and VEGF165. […]\nThe beta-amyloid-tagged protein chip prepared in Example 2 was blocked with 3% BSA for 2 hours; then washed with 0.05% PBST twice; and then dried with a nitrogen gas. […] It was washed with the washing solution; then dried using a nitrogen gas; a primary antibody was added to each of wells; then reacted at 30° C. in a humidity incubator for 30 minutes; washed with the washing solution; and then dried with the nitrogen gas to measure an inhibition ability of library by analyzing the binding degree with the relative fluorescence intensity using a fluorescence laser scanner. […]"}, "[3]": {"test_system": "SH-SY5Y cell", "from_the_text": "PC12 Cell (Korean Cell Line Bank, Seoul, Korea) was maintained in the mixed solution of RPMI1640 (Welgene, Daegu, Korea) containing 1× Antibiotic-Antimycotic (GIBCO, N.Y., USA) and 10% FBS (Fetal Bovine Serum) (Welgene, Daegu, Korea). SH-SY5Y cell (Korean Cell Line Bank, Seoul, Korea) was maintained in the mixed solution of DMED/F12 (Welgene, Daegu, Korea) containing 1× Antibiotic-Antimycotic (GIBCO, N.Y., USA) and 10% FBS (Fetal Bovine Serum) (Welgene, Daegu, Korea). The PC12 and SH-SY5Y culture cells were maintained under the conditions of 100% humidity and 37° C. in the environment for supplying gas components with further 5% carbon dioxide.\nIt was performed according to a MTT [(3-(4,5-dimethylthiazol-2yl-2,5-diphenyl-2H-tetrazoilum bromide] experiment protocol. MTT was dissolved in PBS to be 5 mg/ml and then stored at 4° C. to use. After completing the reaction, 10 μl of 5 mg/ml MTT solution was added to 100 culture mixed solution of each well and then reacted for 3 hours. The supernatant of each well was discarded, and then a chromophoric reactant (Formazancrystal) was dissolved in 100 μl of DMSO; and then an absorbance was measured using ELISA reader (595 nm).\nThe PC12 cells were added to each of wells of Poly-D-lysine-coated 96-well tissue culture plate (Corning, Mass., USA) to be the cell concentration of 2×10^4 per well. […]"}},
  "data": [
    {"compound": "NCCCS(=O)(=O)O", "note": "[Alzhemed™]", "values": [
      {"measurement": "survival rate of cell increased", "setting": "[1]", "value": "about 30%"}
    ]},
    {"compound": "heparin", "values": [
      {"measurement": "inhibition of the interaction between beta-amyloid 1-42 peptide and VEGF165 (relative fluorescence intensity)", "setting": "[2]", "value": "inhibited"}
    ]},
    {"compound": "beta-amyloid 1-42: forward-synthesized beta-amyloid 1-42 peptide", "values": [
      {"measurement": "survival rate of cell", "setting": "[3]", "value": "decreased in proportion as the concentration increase"}
    ]}
  ]
}
